For two compounds, Activity, Stability and Drug uptake results are on record in ChEMBL document CHEMBL3217637, “Temocene: the porphycene analogue of temoporfin (Foscan)” (Medchemcomm, 2011).

Data set [1] has as its system HeLa. In words: Cytotoxicity against human HeLa cells assessed as decrease in cell viability under dark condition after 18 hrs by MTT assay. Type of data set: cell-based.
Data set [2] can be described thus: Photostability of the compound in aerated acetone under irradiation at 532 nm laser pulses. Also on record: dose or concentration left out as unconfirmed. Type of data set: physicochemical.
The nature of data set [3]: Cellular uptake in cytoplasm of human HeLa cells under ultraviolet irradiation at 365 nm at 1 to 10 uM after 18 hrs by mitotracker green staining-based fluorescence microscopic analysis. In kind it is ADME, cell-based.
Data set [4] is described as follows: Cellular uptake in mitochondria of human HeLa cells under ultraviolet irradiation at 365 nm at 1 to 10 uM after 18 hrs by mitotracker green staining-based fluorescence microscopic analysis. Type of data set: ADME.
Data set [5] relates to HeLa. In words: Phototoxicity against human HeLa cells assessed as decrease in cell viability at > 5 uM preincubated for 18 hrs followed by 3.5 J/cm'2 of photoirradiation measured after 24 hrs by MTT assay. Type of data set: functional, cell-based. In general terms: Formazan colour is commonly taken as a measure of viable cells.
The nature of data set [6]: Cellular uptake in cytoplasm of human HeLa cells under prolonged irradiation at 365 nm up to 10 uM after 18 hrs by mitotracker green staining-based fluorescence microscopic analysis. Type of data set: ADME, cell-based.
Data set [7] can be described thus: Cellular uptake in mitochondria of human HeLa cells under prolonged irradiation at 365 nm up to 10 uM after 18 hrs by mitotracker green staining-based fluorescence microscopic analysis. In kind it is ADME.
Data set [8] has as its system HeLa. In words: Cellular uptake in human HeLa cells under ultraviolet irradiation at 365 nm at 0.5 uM after 18 hrs by mitotracker green staining-based fluorescence microscopic analysis. In kind it is ADME, cell-based.
The subject of data set [9] is HeLa. In words: Phototoxicity against human HeLa cells assessed as decrease in cell viability at < 5 uM preincubated for 18 hrs followed by > 3.5 J/cm'2 of photoirradiation measured after 24 hrs by MTT assay. In kind it is functional, cell-based.

Calls of active or inactive are those of the source. The rule behind the calls is not given here.

In the case of `Oc1cccc(-c2c3nc(c(-c4cccc(O)c4)c4ccc([nH]4)c(-c4cccc(O)c4)c4nc(c(-c5cccc(O)c5)c5ccc2[nH]5)CC4)C=C3)c1` [TEMOPORFIN], the Activity entry in the data set on HeLa [1] was “Toxic”. In [2], the Stability entry is “Stable”.

On to `Oc1cccc(C2=Cc3nc2ccc2[nH]c(cc2-c2cccc(O)c2)c2nc(ccc4[nH]c3cc4-c3cccc(O)c3)C(c3cccc(O)c3)=C2)c1`, for which the Drug uptake result in data set [3] is listed as “Active”; in data set [4], “Active”; in [6] it was “Active”; in data set [7] it was “Active”; in the data set on HeLa [8], “Not Active”. Besides, the outcome in the data set on HeLa [5] and in the data set on HeLa [9] was Active. In addition, the Activity entry in the data set on HeLa [1] is “Non-toxic”. Also, in data set [2], the Stability entry is recorded as “Stable”.
